From patent US8673908B2, “Kynurenine production inhibitor” (Kyowa Hakko Kirin Co., Ltd., priority 2008, dated 2014)

test system: kynurenine production in IFN-γ-treated KATO-III cells; assay: Inhibitory activity on kynurenine production (Test Example 1); assay type: cell-based; conditions: Homo sapiens, IFN-γ treatment, culture for 96 hours, read-out: IC50 value, inhibition of kynurenine production
In short: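 KATO-III human gastric cancer cells (2,000/well, RPMI 1640 + 10% FBS) were cultured with compound and IFN-γ (31.25 ng/mL in the cell suspension), DMSO ≤0.1%, for 96 h at 37 °C, 5% CO2. Kynurenine was read at A480 after TCA at 65 °C and p-dimethylaminobenzaldehyde. Inhibition used IFN-γ-treated and untreated DMSO wells as references.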

Row | IC50 | SMILES
1 | < 1000 nM | O=S(=O)(Nc1nc2ccccc2nc1OC(c1ccc(Cl)nc1)C(F)(F)F)NC1CC1 (stereo not drawn) [Compound 288, N-{3-[1-(6-chloropyridin-3-yl)-2,2,2-trifluoroethoxy]-quinoxalin-2-yl}-N′-cyclopropyl-sulfuric diamide]
2 | 1000 to 10000 nM | Cc1ccc(C(Oc2nc3ccccc3nc2NS(=O)(=O)NC2CC2)C(F)(F)F)c[n+]1[O-] (stereo not drawn) [Compound 289, 5-{1-[3-(N-cyclopropylsulfamoylamino)quinoxalin-2-yloxy]-2,2,2-trifluoroethyl}-2-methylpyridine 1-oxide]
3 | < 1000 nM | CCCS(=O)(=O)Nc1nc2ccccc2nc1OC(c1cccc(C#N)c1)C(F)(F)F (stereo not drawn) [Compound 290, N-{3-[1-(3-cyanophenyl)-2,2,2-trifluoroethoxy]quinoxalin-2-yl}propane-1-sulfonamide]
4 | < 1000 nM | CCCNS(=O)(=O)Nc1nc2ccccc2nc1OC(c1cccc(C#N)c1)C(F)(F)F (stereo not drawn) [Compound 291, N-{3-[1-(3-cyanophenyl)-2,2,2-trifluoroethoxy]quinoxalin-2-yl}-N′-propyl-sulfuric diamide]
5 | < 1000 nM | CCCNS(=O)(=O)Nc1nc2ccccc2nc1OC(c1ccc(C#N)cc1)C(F)(F)F (stereo not drawn) [Compound 292, N-{3-[1-(4-cyanophenyl)-2,2,2-trifluoroethoxy]quinoxalin-2-yl}-N′-propyl-sulfuric diamide]
6 | < 1000 nM | N#Cc1cccc(C(Oc2nc3ccccc3nc2NS(=O)(=O)NC2CC2)C(F)(F)F)c1 (stereo not drawn) [Compound 293, N-{3-[1-(3-cyanophenyl)-2,2,2-trifluoroethoxy]quinoxalin-2-yl}-N′-cyclopropyl-sulfuric diamide]
7 | < 1000 nM | O=S(=O)(Nc1nc2ccccc2nc1OC(C1CCOCC1)C(F)(F)F)NC1CC1 (stereo not drawn) [Compound 299, N-{3-[2,2,2-trifluoro-1-(tetrahydro-2H-pyran-4-yl)ethoxy]-quinoxalin-2-yl}-N′-cyclopropyl-sulfuric diamide]
8 | < 1000 nM | COCCS(=O)(=O)Nc1nc2ccccc2nc1OC(c1cccnc1)C(F)(F)F (stereo not drawn) [Compound 300, 2-methoxy-N-{3-[2,2,2-trifluoro-1-(pyridin-3-yl)ethoxy]-quinoxalin-2-yl}ethanesulfonamide]
9 | < 1000 nM | COCCCS(=O)(=O)Nc1nc2ccccc2nc1OC(c1cccnc1)C(F)(F)F (stereo not drawn) [Compound 301, 3-methoxy-N-{3-[2,2,2-trifluoro-1-(pyridin-3-yl)ethoxy]-quinoxalin-2-yl}propane-1-sulfonamide]
10 | < 1000 nM | CCCS(=O)(=O)Nc1nc2ccccc2nc1OC(c1ccc(Cl)cc1)C(F)(F)F (stereo not drawn) [Compound 302, N-{3-[1-(4-chlorophenyl)-2,2,2-trifluoroethoxy]quinoxalin-2-yl}propane-1-sulfonamide]
11 | < 1000 nM | O=S(=O)(CC1CC1)Nc1nc2ccccc2nc1OC(c1cccnc1)C(F)(F)F (stereo not drawn) [Compound 303, 1-cyclopropyl-N-{3-[2,2,2-trifluoro-1-(pyridin-3-yl)-ethoxy]quinoxalin-2-yl}methanesulfonamide]
12 | < 1000 nM | C=CCS(=O)(=O)Nc1nc2ccccc2nc1OC(c1cccnc1)C(F)(F)F (stereo not drawn) [Compound 304, N-{3-[2,2,2-trifluoro-1-(pyridin-3-yl)ethoxy]quinoxalin-2-yl}-2-propene-1-sulfonamide]
13 | < 1000 nM | Cc1ccc(C(Oc2nc3ccccc3nc2NS(=O)(=O)CC2CC2)C(F)(F)F)cn1 (stereo not drawn) [Compound 305, 1-cyclopropyl-N-{3-[2,2,2-trifluoro-1-(6-methylpyridin-3-yl)ethoxy]quinoxalin-2-yl}methanesulfonamide]
14 | < 1000 nM | Cc1ncc(C(Oc2nc3ccccc3nc2NS(=O)(=O)CC2CC2)C(F)(F)F)s1 (stereo not drawn) [Compound 306, 1-cyclopropyl-N-{3-[2,2,2-trifluoro-1-(2-methylthiazol-5-yl)ethoxy]quinoxalin-2-yl}methanesulfonamide]
15 | < 1000 nM | O=S(=O)(CC1CC1)Nc1nc2ccccc2nc1O[C@H](c1cccnc1)C(F)(F)F [Compound 307, (R)-1-cyclopropyl-N-{3-[2,2,2-trifluoro-1-(pyridin-3-yl)-ethoxy]quinoxalin-2-yl}methanesulfonamide]
16 | < 1000 nM | O=S(=O)(CC1CC1)Nc1nc2ccccc2nc1OC(c1ccc(Cl)nc1)C(F)(F)F (stereo not drawn) [Compound 308, 1-cyclopropyl-N-{3-[1-(6-chloropyridin-3-yl)-2,2,2-trifluoroethoxy]quinoxalin-2-yl}methanesulfonamide]
17 | < 1000 nM | N#Cc1cccc(C(Oc2nc3ccccc3nc2NS(=O)(=O)CC2CC2)C(F)(F)F)c1 (stereo not drawn) [Compound 309, 1-cyclopropyl-N-{3-[1-(3-cyanophenyl)-2,2,2-trifluoroethoxy]quinoxalin-2-yl}methanesulfonamide]
18 | < 1000 nM | CCCS(=O)(=O)Nc1nc2ccccc2nc1O[C@H](c1cccnc1)C(F)(F)F [Compound 312, (R)—N-{3-[2,2,2-trifluoro-1-(pyridin-3-yl)ethoxy]-quinoxalin-2-yl}propane-1-sulfonamide]

Row | IC50 | SMILES
19 | 1000 to 10000 nM | CCCS(=O)(=O)Nc1nc2ccccc2nc1O[C@@H](c1cccnc1)C(F)(F)F [Compound 313, (S)—N-{3-[2,2,2-trifluoro-1-(pyridin-3-yl)ethoxy]-quinoxalin-2-yl}propane-1-sulfonamide]
20 | < 1000 nM | CCCNS(=O)(=O)Nc1nc2ccccc2nc1O[C@H](c1cccnc1)C(F)(F)F [Compound 314, (R)—N-propyl-N′-{3-[2,2,2-trifluoro-1-(pyridin-3-yl)-ethoxy]quinoxalin-2-yl}sulfuric diamide]
21 | < 1000 nM | CCCS(=O)(=O)Nc1nc2ccccc2nc1OC(c1cnc(C)s1)C(F)(F)F (stereo not drawn) [Compound 315, N-{3-[2,2,2-trifluoro-1-(2-methylthiazol-5-yl)ethoxy]-quinoxalin-2-yl}propane-1-sulfonamide]
22 | < 1000 nM | O=S(=O)(Nc1nc2ccccc2nc1O[C@H](c1cccnc1)C(F)(F)F)NC1CC1 [Compound 317, (R)—N-cyclopropyl-N′-{3-[2,2,2-trifluoro-1-(pyridin-3-yl)-ethoxy]quinoxalin-2-yl}sulfuric diamide]
23 | < 1000 nM | CCCS(=O)(=O)Nc1nc2ccccc2nc1O[C@H](c1ccc(C)nc1)C(F)(F)F [Compound 319, (R)—N-{3-[2,2,2-trifluoro-1-(6-methylpyridin-3-yl)ethoxy]-quinoxalin-2-yl}propane-1-sulfonamide]
24 | < 1000 nM | O=S(=O)(Nc1nc2ccccc2nc1OC(C(F)(F)F)C(F)(F)F)c1ccccc1Cl [Compound 321, 2-chloro-N-{3-[(1,1,1,3,3,3-hexafluoropropan-2-yl)oxy]-quinoxalin-2-yl}benzenesulfonamide]
25 | < 1000 nM | CCCS(=O)(=O)Nc1nc2ccccc2nc1OC(C(F)(F)F)C(F)(F)F [Compound 322, N-{3-[(1,1,1,3,3,3-hexafluoropropan-2-yl)oxy]quinoxalin-2-yl}propane-1-sulfonamide]
26 | < 1000 nM | CCCNS(=O)(=O)Nc1nc2ccccc2nc1OC(c1cnc(C)s1)C(F)(F)F (stereo not drawn) [Compound 323, N-propyl-N′-{3-[2,2,2-trifluoro-1-(2-methylthiazol-5-yl)-ethoxy]quinoxalin-2-yl}sulfuric diamide]
27 | < 1000 nM | Cc1ncc(C(Oc2nc3ccccc3nc2NS(=O)(=O)NC2CC2)C(F)(F)F)s1 (stereo not drawn) [Compound 324, N-cyclopropyl-N′-{3-[2,2,2-trifluoro-1-(2-methylthiazol-5-yl)ethoxy]quinoxalin-2-yl}sulfuric diamide]
28 | 1000 to 10000 nM | CCCS(=O)(=O)Nc1nc2ccccc2nc1OC(C1CCN(C)CC1)C(F)(F)F (stereo not drawn) [Compound 326, N-{3-[2,2,2-trifluoro-1-(1-methylpiperidin-4-yl)ethoxy]-quinoxalin-2-yl}propane-1-sulfonamide]
29 | 1000 to 10000 nM | CCCNS(=O)(=O)Nc1nc2ccccc2nc1OC(C1CCN(C)CC1)C(F)(F)F (stereo not drawn) [Compound 328, N-propyl-N′-{3-[2,2,2-trifluoro-1-(1-methylpiperidin-4-yl)ethoxy]quinoxalin-2-yl}sulfuric diamide]
30 | < 1000 nM | CCCS(=O)(=O)Nc1nc2ccccc2nc1OC(C1CCN(C(C)=O)CC1)C(F)(F)F (stereo not drawn) [Compound 330, N-{3-[2,2,2-trifluoro-1-(1-acetylpiperidin-4-yl)ethoxy]-quinoxalin-2-yl}propane-1-sulfonamide]
31 | < 1000 nM | CCCS(=O)(=O)Nc1nc2ccccc2nc1OC(c1cncc(C)c1)C(F)(F)F (stereo not drawn) [Compound 331, N-{3-[2,2,2-trifluoro-1-(5-methylpyridin-3-yl)ethoxy]-quinoxalin-2-yl}propane-1-sulfonamide]
32 | < 1000 nM | CCCS(=O)(=O)Nc1nc2ccccc2nc1OC(c1cncc(F)c1)C(F)(F)F (stereo not drawn) [Compound 332, N-{3-[2,2,2-trifluoro-1-(5-fluoropyridin-3-yl)ethoxy]-quinoxalin-2-yl}propane-1-sulfonamide]
33 | < 1000 nM | CCCS(=O)(=O)Nc1nc2ccccc2nc1OC(c1cncc(OC)c1)C(F)(F)F (stereo not drawn) [Compound 334, N-{3-[2,2,2-trifluoro-1-(5-methoxypyridin-3-yl)ethoxy]-quinoxalin-2-yl}propane-1-sulfonamide]
34 | < 1000 nM | CCCS(=O)(=O)Nc1nc2ccccc2nc1OC(c1cncc(Cl)c1)C(F)(F)F (stereo not drawn) [Compound 335, N-{3-[2,2,2-trifluoro-1-(5-chloropyridin-3-yl)ethoxy]-quinoxalin-2-yl}propane-1-sulfonamide]
35 | < 1000 nM | CCCS(=O)(=O)Nc1nc2ccccc2nc1OC(C1CCN(S(C)(=O)=O)CC1)C(F)(F)F (stereo not drawn) [Compound 336, N-{3-[2,2,2-trifluoro-1-(1-methanesulfonylpiperidin-4-yl)-ethoxy]quinoxalin-2-yl}propane-1-sulfonamide]
36 | < 1000 nM | CCCS(=O)(=O)Nc1nc2ccccc2nc1OC(C1CCN(C(=O)OC)CC1)C(F)(F)F (stereo not drawn) [Compound 337, N-{3-[2,2,2-trifluoro-1-(1-methoxycarbonylpiperidin-4-yl)-ethoxy]quinoxalin-2-yl}propane-1-sulfonamide]
